Measured values reported in ChEMBL document CHEMBL3885881, “DrugMatrix”.

Species on record: Rattus norvegicus
Assay: DrugMatrix - Regimen: Daily Repeat
Type: toxicity, organism-based, Sprague-Dawley
Set-up: regimen Daily Repeat, gender Male, age 6-8 weeks
Details: in vivo, po, route oral GAVAGE, vehicle 100 % WATER; for BASOPHIL / EOSINOPHIL / ERYTHROCYTE COUNT / HEMATOCRIT / HEMOGLOBIN / LEUKOCYTE COUNT / LYMPHOCYTE / MEAN CORPUSCULAR HEMOGLOBIN / MEAN CORPUSCULAR HEMOGLOBIN CONCENTRATION / MEAN CORPUSCULAR VOLUME / MONOCYTE / NEUTROPHIL / PLATELET COUNT: tissue Blood; for ALANINE AMINOTRANSFERASE / ALBUMIN / ALKALINE PHOSPHATASE / ASPARTATE AMINOTRANSFERASE / BLOOD UREA NITROGEN / CHLORIDE / CHOLESTEROL / CREATINE PHOSPHOKINASE / CREATININE / GLUCOSE / PHOSPHORUS / POTASSIUM / SODIUM / TOTAL BILIRUBIN / TOTAL PROTEIN: tissue Plasma
[1] = 10 mg/kg, 120 h, dose level Low, time 5 day
[2] = 1500 mg/kg, 72 h, dose level High, time 3 day
[3] = 1500 mg/kg, 120 h, dose level High, time 5 day

O=C(O)c1cc(=O)c2c(OCC(O)COc3cccc4oc(C(=O)O)cc(=O)c34)cccc2o1 [CROMOLYN]
BASOPHIL [1]: 0%
EOSINOPHIL [1]: 0.33%
ERYTHROCYTE COUNT [1]: 5.82 x10E6/uL
HEMATOCRIT [1]: 35.37%
HEMOGLOBIN [1]: 14.43 G/DL
LEUKOCYTE COUNT [1]: 10.43 x10E3/uL
LYMPHOCYTE [1]: 85%
MEAN CORPUSCULAR HEMOGLOBIN [1]: 24.83 pg
MEAN CORPUSCULAR HEMOGLOBIN CONCENTRATION [1]: 40.83 G/DL
MEAN CORPUSCULAR VOLUME [1]: 60.73 fL
MONOCYTE [1]: 2.33%
NEUTROPHIL [1]: 12.33%
PLATELET COUNT [1]: 932 x10E3/uL
ALANINE AMINOTRANSFERASE [1]: 38 u/L
ALBUMIN [1]: 3.73 G/DL
ALKALINE PHOSPHATASE [1]: 274 u/L
ASPARTATE AMINOTRANSFERASE [1]: 62.33 u/L
BLOOD UREA NITROGEN [1]: 13.33 mg/dL
CHLORIDE [1]: 109 MEQ/L
CHOLESTEROL [1]: 60.33 mg/dL
CREATINE PHOSPHOKINASE [1]: 101.67 u/L
CREATININE [1]: 0.73 mg/dL
GLUCOSE [1]: 167.33 mg/dL
PHOSPHORUS [1]: 9.73 mg/dL
POTASSIUM [1]: 6.7 MEQ/L
SODIUM [1]: 151.33 MEQ/L
TOTAL BILIRUBIN [1]: 0.67 mg/dL
TOTAL PROTEIN [1]: 5.87 G/DL
BASOPHIL [2]: 0%
EOSINOPHIL [2]: 0.33%
ERYTHROCYTE COUNT [2]: 5.31 x10E6/uL
HEMATOCRIT [2]: 33.07%
HEMOGLOBIN [2]: 13.3 G/DL
LEUKOCYTE COUNT [2]: 10.3 x10E3/uL
LYMPHOCYTE [2]: 79.67%
MEAN CORPUSCULAR HEMOGLOBIN [2]: 25.1 pg
MEAN CORPUSCULAR HEMOGLOBIN CONCENTRATION [2]: 40.3 G/DL
MEAN CORPUSCULAR VOLUME [2]: 62.23 fL
MONOCYTE [2]: 1%
NEUTROPHIL [2]: 18.67%
PLATELET COUNT [2]: 969.67 x10E3/uL
ALANINE AMINOTRANSFERASE [2]: 36 u/L
ALBUMIN [2]: 3.9 G/DL
ALKALINE PHOSPHATASE [2]: 383.5 u/L
ASPARTATE AMINOTRANSFERASE [2]: 60 u/L
BLOOD UREA NITROGEN [2]: 13 mg/dL
CHLORIDE [2]: 106 MEQ/L
CHOLESTEROL [2]: 72 mg/dL
CREATINE PHOSPHOKINASE [2]: 122 u/L
CREATININE [2]: 0.5 mg/dL
GLUCOSE [2]: 179 mg/dL
PHOSPHORUS [2]: 9.8 mg/dL
POTASSIUM [2]: 6.7 MEQ/L
SODIUM [2]: 150 MEQ/L
TOTAL BILIRUBIN [2]: 0.5 mg/dL
TOTAL PROTEIN [2]: 6.25 G/DL
BASOPHIL [3]: 0%
EOSINOPHIL [3]: 0%
ERYTHROCYTE COUNT [3]: 6.38 x10E6/uL
HEMATOCRIT [3]: 37.77%
HEMOGLOBIN [3]: 14.93 G/DL
LEUKOCYTE COUNT [3]: 13.03 x10E3/uL
LYMPHOCYTE [3]: 83.33%
MEAN CORPUSCULAR HEMOGLOBIN [3]: 23.43 pg
MEAN CORPUSCULAR HEMOGLOBIN CONCENTRATION [3]: 39.57 G/DL
MEAN CORPUSCULAR VOLUME [3]: 59.27 fL
MONOCYTE [3]: 0.67%
NEUTROPHIL [3]: 16%
PLATELET COUNT [3]: 1070.67 x10E3/uL
ALANINE AMINOTRANSFERASE [3]: 36.33 u/L
ALBUMIN [3]: 3.77 G/DL
ALKALINE PHOSPHATASE [3]: 352 u/L
ASPARTATE AMINOTRANSFERASE [3]: 63 u/L
BLOOD UREA NITROGEN [3]: 15.33 mg/dL
CHLORIDE [3]: 106 MEQ/L
CHOLESTEROL [3]: 50.67 mg/dL
CREATINE PHOSPHOKINASE [3]: 125.33 u/L
CREATININE [3]: 0.63 mg/dL
GLUCOSE [3]: 177.67 mg/dL
PHOSPHORUS [3]: 10.5 mg/dL
POTASSIUM [3]: 7.1 MEQ/L
SODIUM [3]: 150 MEQ/L
TOTAL BILIRUBIN [3]: 0.57 mg/dL
TOTAL PROTEIN [3]: 6.13 G/DL
